Reference: paper PMC7614775 (Nature chemical biology, 2022)
Entries after “also recorded” stand apart in the source; their conditions may differ. Where two headings read alike, the source gives them in different places.

Legend:
[1] = system: IL-6-stimulated STAT3 phosphorylation; experiment: Phospho-STAT western blot in mouse splenocytes; type: cell-based
[2] = system: prolactin (PRL)-stimulated STAT5 (JAK2-dependent) phosphorylation; experiment: Phospho-STAT western blot in 22Rv1 cells expressing JAK1 variants; type: cell-based, human; details: 2 µM, 2 h
[3] = system: GM-CSF stimulated STAT5 phosphorylation (JAK2-dependent); experiment: Phospho-STAT western blot in human PBMCs; type: cell-based; details: compound 2 h, GM-CSF 15 min
[4] = system: IFNα-stimulated STAT1 phosphorylation; experiment: HTRF phospho-STAT1 assay in human PBMCs; type: cell-based; details: read-out: IC50, IFNα-stimulated STAT1 phosphorylation (HTRF)
[5] = system: primary human T cells; experiment: T-cell viability (Near IR Live/Dead stain); type: cell-based; details: 24 h
[6] = molecular target: JAK1 trans-phosphorylation (Homo sapiens, UniProt P23458); experiment: Trans-phosphorylation assay in 22Rv1 cells; type: cell-based; details: cells expressing active WT-JAK1-FLAG; 2 µM, 2 h
Chain of JAK1 trans-phosphorylation (P23458 whole entry): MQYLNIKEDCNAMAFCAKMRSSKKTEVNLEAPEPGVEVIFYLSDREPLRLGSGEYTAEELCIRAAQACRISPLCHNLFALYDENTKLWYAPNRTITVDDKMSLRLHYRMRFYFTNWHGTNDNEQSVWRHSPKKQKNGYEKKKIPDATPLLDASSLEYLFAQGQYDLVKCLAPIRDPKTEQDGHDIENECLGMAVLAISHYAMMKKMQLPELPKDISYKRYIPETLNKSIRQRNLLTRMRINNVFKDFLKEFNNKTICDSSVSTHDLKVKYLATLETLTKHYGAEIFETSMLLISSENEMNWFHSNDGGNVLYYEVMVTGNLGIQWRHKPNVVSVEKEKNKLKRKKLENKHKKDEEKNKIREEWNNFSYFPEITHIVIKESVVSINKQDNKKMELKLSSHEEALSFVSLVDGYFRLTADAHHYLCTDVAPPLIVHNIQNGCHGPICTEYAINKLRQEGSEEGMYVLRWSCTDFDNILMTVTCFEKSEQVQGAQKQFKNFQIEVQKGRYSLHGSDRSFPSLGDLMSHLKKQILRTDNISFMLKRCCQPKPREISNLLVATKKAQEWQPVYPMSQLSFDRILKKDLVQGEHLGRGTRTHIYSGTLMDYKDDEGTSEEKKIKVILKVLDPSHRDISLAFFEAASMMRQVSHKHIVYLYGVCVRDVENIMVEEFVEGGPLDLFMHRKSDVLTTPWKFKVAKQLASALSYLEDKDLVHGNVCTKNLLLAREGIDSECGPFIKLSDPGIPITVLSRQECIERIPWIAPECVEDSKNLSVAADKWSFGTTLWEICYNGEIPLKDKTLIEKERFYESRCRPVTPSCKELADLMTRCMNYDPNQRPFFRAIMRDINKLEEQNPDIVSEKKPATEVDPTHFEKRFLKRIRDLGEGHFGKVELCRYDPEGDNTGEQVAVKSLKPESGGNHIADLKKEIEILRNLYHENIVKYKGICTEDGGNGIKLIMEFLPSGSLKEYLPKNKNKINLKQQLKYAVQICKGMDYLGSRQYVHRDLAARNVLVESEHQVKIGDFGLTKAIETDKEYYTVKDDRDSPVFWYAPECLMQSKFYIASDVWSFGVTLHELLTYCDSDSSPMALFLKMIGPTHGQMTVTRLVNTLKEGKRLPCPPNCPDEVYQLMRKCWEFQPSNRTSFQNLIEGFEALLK

[7] = system: IFNγ-stimulated STAT1 phosphorylation; experiment: Phospho-STAT western blot in 22Rv1 cells expressing JAK1 variants; type: cell-based, human
[8] = system: IL-6-stimulated STAT3 phosphorylation; experiment: Phospho-STAT western blot in human PBMCs; type: cell-based; details: 0.1 µM
[9] = molecular target: TOR4A_C21 (Homo sapiens, UniProt Q9NXH8); experiment: Untargeted cysteine MS-ABPP, human PBMC lysates treated in vitro; type: binding; details: PBMC lysate in vitro, 1 h
Chain of TOR4A_C21 (Q9NXH8 whole entry): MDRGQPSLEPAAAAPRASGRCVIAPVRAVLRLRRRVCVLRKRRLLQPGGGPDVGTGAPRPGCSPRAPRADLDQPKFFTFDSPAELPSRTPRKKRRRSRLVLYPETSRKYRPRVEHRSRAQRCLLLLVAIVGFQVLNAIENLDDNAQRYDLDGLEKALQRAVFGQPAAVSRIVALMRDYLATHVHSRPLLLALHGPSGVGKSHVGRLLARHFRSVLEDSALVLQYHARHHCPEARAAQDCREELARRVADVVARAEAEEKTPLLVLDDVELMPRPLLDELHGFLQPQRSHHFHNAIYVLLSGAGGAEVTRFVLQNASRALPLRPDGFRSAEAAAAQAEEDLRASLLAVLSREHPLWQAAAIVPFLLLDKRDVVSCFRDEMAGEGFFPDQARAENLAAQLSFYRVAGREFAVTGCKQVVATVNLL

[10] = molecular target: T1, HMOX2_C282 (Homo sapiens, UniProt P30519); experiment: Untargeted cysteine MS-ABPP, human PBMCs treated in situ; type: binding
T1 sequence (P30519 1-316): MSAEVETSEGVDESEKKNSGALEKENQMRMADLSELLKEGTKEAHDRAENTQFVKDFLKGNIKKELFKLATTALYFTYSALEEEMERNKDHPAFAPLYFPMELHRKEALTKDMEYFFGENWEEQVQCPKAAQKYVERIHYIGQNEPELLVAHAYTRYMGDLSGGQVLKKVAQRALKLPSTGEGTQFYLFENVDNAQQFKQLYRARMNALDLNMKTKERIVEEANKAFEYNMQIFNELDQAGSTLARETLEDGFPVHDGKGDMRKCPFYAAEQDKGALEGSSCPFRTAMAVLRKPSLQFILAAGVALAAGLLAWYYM

[11] = system: IFNα-stimulated STAT1 phosphorylation; experiment: Phospho-STAT western blot in human PBMCs; type: cell-based; details: 0.1 µM
[12] = system: IFNα-stimulated human PBMCs; experiment: Multiplex immunoassay of cytokines/chemokines; type: cell-based; details: compound 2 h, then IFNα 100 ng/mL, 16 h
[13] = molecular target: T2, TYK2_C838 (Homo sapiens, UniProt P29597); experiment: Untargeted cysteine MS-ABPP, human PBMCs treated in situ; type: binding
T2 sequence (P29597 whole entry): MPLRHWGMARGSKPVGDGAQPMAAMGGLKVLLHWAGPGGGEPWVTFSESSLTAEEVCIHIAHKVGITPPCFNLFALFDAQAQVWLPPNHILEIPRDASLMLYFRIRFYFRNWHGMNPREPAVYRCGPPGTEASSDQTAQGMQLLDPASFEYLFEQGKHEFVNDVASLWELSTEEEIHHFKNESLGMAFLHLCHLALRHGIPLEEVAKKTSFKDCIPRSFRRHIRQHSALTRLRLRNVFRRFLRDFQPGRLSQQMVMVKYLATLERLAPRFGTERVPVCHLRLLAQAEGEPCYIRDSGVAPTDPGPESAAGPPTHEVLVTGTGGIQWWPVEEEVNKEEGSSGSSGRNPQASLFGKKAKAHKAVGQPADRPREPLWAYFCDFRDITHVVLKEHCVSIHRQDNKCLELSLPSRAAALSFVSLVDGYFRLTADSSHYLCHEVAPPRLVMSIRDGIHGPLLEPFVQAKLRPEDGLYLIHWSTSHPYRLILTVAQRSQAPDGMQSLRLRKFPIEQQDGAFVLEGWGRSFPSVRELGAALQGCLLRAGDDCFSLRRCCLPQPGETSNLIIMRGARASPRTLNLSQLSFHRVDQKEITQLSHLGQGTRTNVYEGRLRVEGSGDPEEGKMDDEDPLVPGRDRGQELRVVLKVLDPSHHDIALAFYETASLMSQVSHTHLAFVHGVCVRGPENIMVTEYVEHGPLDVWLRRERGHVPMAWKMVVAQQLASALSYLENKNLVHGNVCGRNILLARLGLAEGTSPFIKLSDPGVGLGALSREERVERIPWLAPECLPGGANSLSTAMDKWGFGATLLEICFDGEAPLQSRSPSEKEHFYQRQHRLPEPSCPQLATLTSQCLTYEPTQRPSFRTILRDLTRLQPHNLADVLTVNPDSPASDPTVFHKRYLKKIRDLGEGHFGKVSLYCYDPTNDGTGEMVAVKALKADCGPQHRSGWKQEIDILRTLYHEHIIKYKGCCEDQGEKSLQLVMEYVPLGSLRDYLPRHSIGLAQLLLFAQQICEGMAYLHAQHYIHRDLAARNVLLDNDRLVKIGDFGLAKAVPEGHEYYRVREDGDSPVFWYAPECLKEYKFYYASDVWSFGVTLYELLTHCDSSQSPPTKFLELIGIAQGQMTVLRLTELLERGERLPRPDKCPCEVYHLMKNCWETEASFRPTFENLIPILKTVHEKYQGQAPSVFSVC

[14] = molecular target: T2, TYK2_C838; experiment: Untargeted cysteine MS-ABPP, human PBMC lysates treated in vitro; type: binding; details: PBMC lysate in vitro, 1 h
[15] = system: IL-2-stimulated STAT5 phosphorylation; experiment: Phospho-STAT western blot in human PBMCs; type: cell-based; details: 0.1–1 µM
[16] = system: GM-CSF-STAT5 signaling; experiment: Phospho-STAT western blot in mouse splenocytes; type: cell-based
[17] = molecular target: JAK1_C817 (Homo sapiens, UniProt P23458); experiment: Targeted MS-ABPP target engagement (TE50) in human cell lysates; type: binding
Chain of JAK1_C817 (P23458 whole entry): as the sequence (P23458 whole entry) above

[18] = molecular target: T3, SLC66A3_C135 (Homo sapiens, UniProt Q8N755); experiment: Untargeted cysteine MS-ABPP, human PBMCs treated in situ; type: binding
T3 sequence (Q8N755 20-202): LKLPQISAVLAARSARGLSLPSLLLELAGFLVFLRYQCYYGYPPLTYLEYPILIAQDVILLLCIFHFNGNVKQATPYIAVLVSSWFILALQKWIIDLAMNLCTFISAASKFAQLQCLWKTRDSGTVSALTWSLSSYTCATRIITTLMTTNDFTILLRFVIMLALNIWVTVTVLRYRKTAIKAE

[19] = system: IFNα-dependent STAT1 phosphorylation; experiment: Phospho-STAT western blot in mouse splenocytes; type: cell-based; details: 0.01–0.1 µM
[20] = molecular target: recombinant JAK1 (WT, C810A, C817A) (Homo sapiens, UniProt P23458); experiment: Gel-based ABPP in 22Rv1 cells; type: binding; details: pre-treatment 0.01–1 μM, 2 h, in situ
Chain of recombinant JAK1 (WT, C810A, C817A) (P23458 whole entry C810A/C817A): as the sequence (P23458 whole entry) above, with C810A, C817A counted along it

[21] = molecular target: C816 of mouse JAK1 (Mus musculus, UniProt P52332); experiment: Cysteine MS-ABPP in mouse splenocyte lysates; type: binding; details: 0.01 µM, 1 h
Chain of C816 of mouse JAK1 (P52332 whole entry): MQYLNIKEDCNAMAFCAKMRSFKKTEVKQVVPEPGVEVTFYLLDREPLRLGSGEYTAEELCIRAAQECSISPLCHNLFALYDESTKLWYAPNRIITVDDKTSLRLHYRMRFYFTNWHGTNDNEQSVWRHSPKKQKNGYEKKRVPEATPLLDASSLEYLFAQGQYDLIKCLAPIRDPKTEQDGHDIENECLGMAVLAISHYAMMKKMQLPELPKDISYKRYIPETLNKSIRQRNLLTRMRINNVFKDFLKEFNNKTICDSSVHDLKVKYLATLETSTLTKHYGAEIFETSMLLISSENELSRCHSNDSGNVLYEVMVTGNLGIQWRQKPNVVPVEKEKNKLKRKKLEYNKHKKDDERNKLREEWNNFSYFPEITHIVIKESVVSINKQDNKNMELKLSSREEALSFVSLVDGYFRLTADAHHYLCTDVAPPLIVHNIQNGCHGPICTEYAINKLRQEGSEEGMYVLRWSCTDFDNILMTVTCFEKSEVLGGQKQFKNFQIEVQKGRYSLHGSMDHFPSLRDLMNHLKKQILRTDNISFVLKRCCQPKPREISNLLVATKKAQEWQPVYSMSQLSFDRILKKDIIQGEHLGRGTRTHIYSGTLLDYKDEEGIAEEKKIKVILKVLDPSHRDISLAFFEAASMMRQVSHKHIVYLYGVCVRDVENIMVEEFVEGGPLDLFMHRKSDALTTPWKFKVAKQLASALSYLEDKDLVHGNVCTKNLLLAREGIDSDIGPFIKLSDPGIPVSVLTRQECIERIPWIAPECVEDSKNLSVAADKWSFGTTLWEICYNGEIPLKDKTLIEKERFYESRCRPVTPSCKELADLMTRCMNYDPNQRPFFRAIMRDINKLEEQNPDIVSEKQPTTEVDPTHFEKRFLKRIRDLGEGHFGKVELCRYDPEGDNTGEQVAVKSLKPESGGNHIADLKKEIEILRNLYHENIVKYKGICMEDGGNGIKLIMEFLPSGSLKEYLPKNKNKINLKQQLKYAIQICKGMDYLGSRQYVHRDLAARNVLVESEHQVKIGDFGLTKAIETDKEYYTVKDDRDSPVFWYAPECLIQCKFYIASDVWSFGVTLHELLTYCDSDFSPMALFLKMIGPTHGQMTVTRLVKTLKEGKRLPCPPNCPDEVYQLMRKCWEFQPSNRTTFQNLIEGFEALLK

[22] = system: IL-2-dependent STAT5 phosphorylation; experiment: Phospho-STAT western blot in mouse splenocytes; type: cell-based; details: 0.01–0.1 µM
[23] = molecular target: JAK1 phosphorylation (pJAK1; Y1034/Y1035) (Homo sapiens, UniProt P23458); experiment: JAK1 phosphorylation western blot in 22Rv1 cells expressing JAK1 variants; type: cell-based; details: WT- and C810A-JAK1
Chain of JAK1 phosphorylation (pJAK1; Y1034/Y1035) (Homo sapiens, UniProt P23458) (P23458 whole entry): as the sequence (P23458 whole entry) above

[24] = molecular target: JAK1 phosphorylation (pJAK1; Y1034/Y1035) (Homo sapiens, UniProt P23458, C817A); experiment: as above; type: cell-based; details: C817A-JAK1; 2 µM, 2 h
Chain of JAK1 phosphorylation (pJAK1; Y1034/Y1035) (Homo sapiens, UniProt P23458, C817A) (P23458 whole entry C817A): as the sequence (P23458 whole entry) above, with C817A counted along it

[25] = system: IFNα-stimulated STAT1 phosphorylation (TYK2-dependent); experiment: Phospho-STAT western blot in 22Rv1 cells expressing TYK2 variants; type: cell-based, human; details: WT-TYK2 expressing 22Rv1 cells; 2 h

`CS(=O)(=O)N1CC[C@H](C#CC(=O)N2CCC[C@@H](c3ccc(Cl)c(Cl)c3)C2)C1` [VVD-118313] was tested, and the “effect on IL-6-dependent STAT3 phosphorylation” value ([1]; Tyk2−/− splenocytes) was “fully blocked”, the “effect on IL-6-stimulated STAT3 phosphorylation” value ([1]; WT mouse splenocytes) was “did not inhibit” and the “effect on PRL-induced STAT5 phosphorylation” value [2] was “inactive”. The “effect on GM-CSF stimulated STAT5 phosphorylation” value [3] was “no effect; also recorded: modest inhibitory effects”, the IC50 ([4]; media supplemented with 10% fetal bovine serum (FBS)) was 46 nM and the IC50 ([4]; serum-free media) was 32 nM. The T-cell viability [5] was “Neither compound affected”, the “effect on trans-phosphorylation of inactive JAK1-HA variants” value [6] was “completely blocked” and the “blockade of IFNγ-stimulated STAT1 phosphorylation” value ([7]; K908E-JAK1-expressing 22Rv1 cells) was ~ 40%. For the same compound, the “blockade of IFNγ-stimulated STAT1 phosphorylation” value ([7]; K908E/C817A-JAK1-expressing 22Rv1 cells) was “not observed”, the “effect on IFNγ-stimulated STAT1 phosphorylation” value ([7]; WT-JAK1 transfected 22Rv1 cells, 1 μM, 2 h) was “Neither VVD-118313 nor the TYK2 inhibitor BMS-986165 altered” and the “inhibition of IL-6-stimulated STAT3 phosphorylation” value [8] was over 85%. The “%Engagement” value ([9]; 0.01 µM) was 9%, the “Engagement Ratio (DMSO/VVD-118313)” value ([9]; 0.01 µM) was 1.1 and the “%Engagement” value ([9]; 0.1 µM) was 49%. The “Engagement Ratio (DMSO/VVD-118313)” value ([9]; 0.1 µM) was 1.9, the “%Engagement” value ([9]; 1 µM) was 90% and the “Engagement Ratio (DMSO/VVD-118313)” value ([9]; 1 µM) was 10.0. For the same compound, the “%Engagement” value ([9]; 10 µM) was 97%, the “Engagement Ratio (DMSO/VVD-118313)” value ([9]; 10 µM) was 20.0 and the “Engagement Ratio (DMSO/VVD-118313)” value ([10]; 0.01 µM) was 1.0. The “%Engagement” value ([10]; 0.1 µM) was 27%, the “Engagement Ratio (DMSO/VVD-118313)” value ([10]; 0.1 µM) was 1.4 and the “%Engagement” value ([10]; 1 µM) was “engaged”. For the same compound, the “Engagement Ratio (DMSO/VVD-118313)” value ([10]; 1 µM) was 12.5, the “%Engagement” value ([10]; 10 µM) was 98% and the “Engagement Ratio (DMSO/VVD-118313)” value ([10]; 10 µM) was 20.0. The “inhibition of IFNα-stimulated STAT1 phosphorylation” value [11] was over 85%, the “induction of pro-inflammatory chemokines (CCL2/MCP-1, CXCL10/IP-10, CCL4/MIP-1β)” value [12] was “near-completely suppressed” and the “%Engagement” value ([13]; 0.01 µM) was 9%. For the same compound, the “Engagement Ratio (DMSO/VVD-118313)” value ([13]; 0.01 µM) was 1.1, the “Engagement Ratio (DMSO/VVD-118313)” value ([13]; 0.1 µM) was 5.4 and the “%Engagement” value ([13]; 1 µM) was 92%. For the same compound, the “Engagement Ratio (DMSO/VVD-118313)” value ([13]; 1 µM) was 12.5, the “%Engagement” value ([13]; 10 µM) was 95% and the “Engagement Ratio (DMSO/VVD-118313)” value ([13]; 10 µM) was 18.2. The “Engagement Ratio (DMSO/VVD-118313)” value ([14]; 0.01 µM) was 0.9, the “%Engagement” value ([14]; 0.1 µM) was 32% and the “Engagement Ratio (DMSO/VVD-118313)” value ([14]; 0.1 µM) was 1.5. The “%Engagement” value ([14]; 1 µM) was 83%, the “Engagement Ratio (DMSO/VVD-118313)” value ([14]; 1 µM) was 5.9 and the “%Engagement” value ([14]; 10 µM) was 96%. For the same compound, the “Engagement Ratio (DMSO/VVD-118313)” value ([14]; 10 µM) was 20.0, the “inhibition of IL-2-stimulated STAT5 phosphorylation” value [15] was ~ 70% and the “effect on GM-CSF-STAT5 signaling” value [16] was “sparing”. For the same compound, the “change of TE50 with preincubation time” value ([17]; Jurkat T-cell lysate, 10, 30 and 60 minutes) was “time-dependent decreases”, the “potency compared with the corresponding diastereomers (5c and 5d)” value ([17]; TE50 and pSTAT pIC50) was “substantially more potent” and the “Engagement Ratio (DMSO/VVD-118313)” value ([18]; 0.01 µM) was 1.0. The “%Engagement” value ([18]; 0.1 µM) was 12%, the “Engagement Ratio (DMSO/VVD-118313)” value ([18]; 0.1 µM) was 1.1 and the “Engagement Ratio (DMSO/VVD-118313)” value ([18]; 1 µM) was 4.4. For the same compound, the “%Engagement” value ([18]; 10 µM) was 99%, the “Engagement Ratio (DMSO/VVD-118313)” value ([18]; 10 µM) was 20.0 and the “effect on IFNα-dependent STAT1 phosphorylation” value [19] was “inhibited”. The “competition of probe 6 labeling of WT-JAK1” value [20] was “blocked in a concentration-dependent manner”, the “engagement of mouse JAK1 C816 (% inhibition)” value [21] was over 90% and the “effect on IL-2-dependent STAT5 phosphorylation” value [22] was “inhibited”. The “blockade of JAK1 phosphorylation (maximal activity)” value ([23]; 0.05 µM) was over 90%, the “effect on constitutive JAK1 phosphorylation” value ([23]; 2 µM, 2 h) was “completely blocked” and the “effect on constitutive JAK1 phosphorylation” value [24] was “did not affect”. The “effect on IFNα-induced STAT1 phosphorylation” value [25] was “blocked”.
